Results as given in ChEMBL document CHEMBL1124934, “Synthesis and structure-activity relationships of dynorphin A-(1-8) amide analogues” (J Med Chem, 1990).

Organism: Mus musculus
Test: animal or person
Settings: iv

CN1CC[C@]23c4c5ccc(O)c4O[C@H]2[C@@H](O)C=C[C@H]3[C@H]1C5 [MORPHINE]
ED50: 1.85 mg/kg
